One data set relates to MCF7. The data set is described as follows: cells. The note with it: Homo sapiens.
The target in data set [1] is Cyclin-dependent kinase 2 (Homo sapiens, UniProt P24941). The data set is described as follows: Inhibition of CDK2.
Data set [2] addresses Cyclin-dependent kinase 1 (Homo sapiens, UniProt P06493). Put plainly: Inhibition of CDK1.
Data set [3] is described as follows: Reversible inhibition of HCV NS3 protease. Further details: species or system Hepacivirus hominis.
The subject of data set [4] is Hepatitis C virus. The data set is described as follows: microbe, parasite or virus in culture.
Description: Antiviral activity against HCV by cell based replicon assay
Data set [5] in a line: Selectivity ratio of human elastase to HCV NS3 protease.
Data set [6] in a line: Inhibition of HCV 3a NS3 protease. Set-up: species or system Hepatitis C virus subtype 3a.
In data set [7] the test system is Hepatitis C virus. Put plainly: Inhibition of HCV 1b NS3 protease. Further details: species or system Hepatitis C virus subtype 1b.
Data set [8] deals with C-X-C chemokine receptor type 4 (Homo sapiens, UniProt P61073). Put plainly: Antagonist activity at CXCR4. The data set is classed as functional.
Data set [9] can be described thus: Inhibition of HCV 1a NS3 protease. Further details: species or system Hepatitis C virus subtype 1a.
Data set [10] can be described thus: Inhibition of HCV4 NS3 protease. Further details: species or system Hepatitis C virus genotype 4.
Data set [11] is described as follows: in vivo. The note with it: rat, liver/plasma.
Description: Ratio of drug level in liver to plasma of rat
Data set [12] is described as follows: Inhibition of HCV 2b NS3 protease. Set-up: species or system Hepatitis C virus subtype 2b.
The nature of data set [13]: Ratio of drug level in liver to plasma of monkey. The data set is classed as ADME, tissue-based, Macaca mulatta. The note with it: rhesus monkey.
Data set [14] in a line: Inhibition of HCV6 NS3 protease. Further details: species or system Hepatitis C virus genotype 6.
Data set [15] can be described thus: Inhibition of HCV5 NS3 protease. Further details: species or system Hepatitis C virus genotype 5.
Data set [16] in a line: Half life in monkey. To be noted: rhesus monkey, in vivo. The data set is classed as ADME, organism-based, Macaca mulatta.
Data set [17] can be described thus: Oral bioavailability in dog. It is filed as ADME, organism-based, Canis lupus familiaris. The note with it: in vivo.
A short description of data set [18]: Oral bioavailability in rat. The data set is classed as ADME, organism-based. To be noted: in vivo.
The nature of data set [19]: Half life in dog. It is filed as ADME, organism-based, Canis lupus familiaris. To be noted: in vivo.
A short description of data set [20]: Half life in rat. To be noted: in vivo. The data set is classed as ADME, organism-based.
Data set [21] is described as follows: Protein binding in human plasma. The data set is classed as ADME, cell-free. To be noted: read-out: PPB (converted).
A short description of data set [22]: Oral bioavailability in monkey. The data set is classed as ADME, organism-based, Macaca mulatta. The note with it: rhesus monkey, in vivo.
The nature of data set [23]: Oral bioavailability in rhesus monkey. The data set is classed as ADME, organism-based, Macaca mulatta. To be noted: in vivo.
A further data set deals with T1, Renin (Homo sapiens, UniProt P00797).
T1 sequence (P00797 whole entry): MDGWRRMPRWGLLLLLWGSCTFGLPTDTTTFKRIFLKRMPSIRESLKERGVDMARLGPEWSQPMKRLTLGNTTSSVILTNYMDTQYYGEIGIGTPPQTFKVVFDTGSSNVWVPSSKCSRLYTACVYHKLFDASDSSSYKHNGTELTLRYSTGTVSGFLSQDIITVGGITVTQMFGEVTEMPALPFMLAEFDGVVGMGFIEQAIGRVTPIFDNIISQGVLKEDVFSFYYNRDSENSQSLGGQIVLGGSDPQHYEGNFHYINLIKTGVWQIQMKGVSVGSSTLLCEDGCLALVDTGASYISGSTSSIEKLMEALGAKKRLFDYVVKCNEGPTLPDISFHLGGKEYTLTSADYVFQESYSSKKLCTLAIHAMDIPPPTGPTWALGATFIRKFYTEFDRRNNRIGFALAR
The data set is described as follows: Inhibition of renin.

Data set [24] has as its target T2, Growth factor receptor-bound protein 2 (Homo sapiens, UniProt P62993). The data set is described as follows: Inhibition of SH2 domain of GRB2 in human MDA-MB-231 cells. The data set is classed as cell-based.
In data set [25] the target is T2, Growth factor receptor-bound protein 2. The data set is described as follows: Inhibition of SH2 domain of GRB2 in human MDA-MB-453 cells. It is filed as cell-based.
For data set [26] the target is unchanged. Put plainly: Inhibition of SH2 domain of GRB2 by whole cell based assay.
In data set [27] the target is T3, Beta-secretase 1 (Homo sapiens, UniProt P56817). The data set is described as follows: Inhibition of BACE1.
The target of data set [28] is T4, Growth hormone secretagogue receptor type 1 (Homo sapiens, UniProt Q92847). Put plainly: Agonist activity at ghrelin receptor. It is filed as functional.
Data set [29] has as its target T4, Growth hormone secretagogue receptor type 1. Put plainly: Antagonist activity at ghrelin receptor assessed as inhibition of ghrelin-induced Ca2+ release by cell based assay. It is filed as functional.
Data set [30] has the same target. Put plainly: Agonist activity at ghrelin receptor by cell based assay. It is filed as functional.
In data set [31] the target is T3, Beta-secretase 1. The data set is described as follows: Inhibition of BACE1 by cell based assay.
In data set [32] the test system is Hepatitis C virus. The data set is described as follows: microbe, parasite or virus in culture. To be noted: genotype 1b.
Description: Antiviral activity against HCV1b by cell based replicon assay
A short description of data set [33]: in vivo. The note with it: rat.
Data set [34] has as its system Hepatitis C virus. The data set is described as follows: microbe, parasite or virus in culture. To be noted: subtype 1a.
Description: Antiviral activity against HCV1a by cell based replicon assay
The target in data set [35] is High affinity nerve growth factor receptor (Homo sapiens, UniProt P04629). Put plainly: Inhibition of TrkA assessed as inhibition of mAb5C3 binding.
The target of the next data set is Adenosine receptor A3 (Homo sapiens, UniProt P0DMS8). The data set is described as follows: Antagonist activity at adenosine A3 receptor. It is filed as functional.
The next data set addresses D(1A) dopamine receptor (Homo sapiens, UniProt P21728). The data set is described as follows: Antagonist activity at dopamine D1 receptor. It is filed as functional.
The target of data set [36] is High affinity choline transporter 1 (Homo sapiens, UniProt Q9GZV3). The data set is described as follows: Antagonist activity at CHT1. It is filed as functional.
Data set [37] can be described thus: Antagonist activity at GABA-gated chloride channel. The data set is classed as functional.

*1 amine or outer side, *2 acyl side, *3 side chain or, on linkers, in order; H or OH if unused. Where a SMILES comes first, the peptide text is derived from it. [ ]: non-standard residue; d: D form. LeuΨ(S-CHOHCH2)Ala = CC(C)C[C@H](N[*:1])[C@@H](O)C[C@@H](C)C(=O)[*:2]

By IC50 is commonly meant the concentration that inhibits the measured activity by half. For orientation: Ki means a dissociation constant, usually derived from enzyme kinetics or from competition with a known ligand. The term EC50 denotes the concentration that produces a half-maximal response. For orientation: Kp means the ratio of the level in a tissue or fluid to that in plasma or blood. By half-life is commonly meant how long it takes for the measured level to halve. A word on the bioavailability: it is the share of a dose that reaches the circulation, judged against a reference dose that is usually intravenous. As usually defined, the clearance is a measure of how efficiently the substance is removed, as volume per time.

T4 sequence (Q92847 whole entry): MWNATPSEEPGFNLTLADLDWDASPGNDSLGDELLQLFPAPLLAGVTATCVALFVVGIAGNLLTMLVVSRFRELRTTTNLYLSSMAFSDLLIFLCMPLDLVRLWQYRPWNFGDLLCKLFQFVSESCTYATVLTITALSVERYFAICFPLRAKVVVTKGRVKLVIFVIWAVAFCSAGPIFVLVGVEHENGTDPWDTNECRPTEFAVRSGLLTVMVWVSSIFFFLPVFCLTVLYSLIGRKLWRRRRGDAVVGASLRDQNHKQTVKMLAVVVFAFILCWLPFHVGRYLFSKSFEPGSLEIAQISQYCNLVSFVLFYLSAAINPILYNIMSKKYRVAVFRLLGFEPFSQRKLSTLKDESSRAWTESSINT
T2 sequence (P62993 whole entry, the tested form may be a part): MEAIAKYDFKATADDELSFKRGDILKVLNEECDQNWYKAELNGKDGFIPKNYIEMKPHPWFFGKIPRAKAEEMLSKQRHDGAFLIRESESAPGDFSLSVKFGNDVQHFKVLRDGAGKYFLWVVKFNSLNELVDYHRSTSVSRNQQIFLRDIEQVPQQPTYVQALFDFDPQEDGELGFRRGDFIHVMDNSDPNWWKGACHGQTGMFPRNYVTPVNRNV
T3 sequence (P56817 whole entry): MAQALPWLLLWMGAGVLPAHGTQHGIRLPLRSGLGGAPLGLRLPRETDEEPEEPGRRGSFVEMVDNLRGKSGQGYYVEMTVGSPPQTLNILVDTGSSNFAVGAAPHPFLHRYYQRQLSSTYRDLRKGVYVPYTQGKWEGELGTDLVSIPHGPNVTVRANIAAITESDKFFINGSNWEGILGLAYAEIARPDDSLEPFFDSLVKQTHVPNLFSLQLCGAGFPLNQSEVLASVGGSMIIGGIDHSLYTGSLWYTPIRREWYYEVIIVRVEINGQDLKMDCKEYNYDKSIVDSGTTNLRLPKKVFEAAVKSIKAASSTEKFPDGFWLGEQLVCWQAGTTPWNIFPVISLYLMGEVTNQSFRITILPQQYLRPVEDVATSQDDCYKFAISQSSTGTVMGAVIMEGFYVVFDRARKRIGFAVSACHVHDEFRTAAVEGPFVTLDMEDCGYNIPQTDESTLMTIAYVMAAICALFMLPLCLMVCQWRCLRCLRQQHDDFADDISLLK
Sequence of Cyclin-dependent kinase 1 (P06493 whole entry): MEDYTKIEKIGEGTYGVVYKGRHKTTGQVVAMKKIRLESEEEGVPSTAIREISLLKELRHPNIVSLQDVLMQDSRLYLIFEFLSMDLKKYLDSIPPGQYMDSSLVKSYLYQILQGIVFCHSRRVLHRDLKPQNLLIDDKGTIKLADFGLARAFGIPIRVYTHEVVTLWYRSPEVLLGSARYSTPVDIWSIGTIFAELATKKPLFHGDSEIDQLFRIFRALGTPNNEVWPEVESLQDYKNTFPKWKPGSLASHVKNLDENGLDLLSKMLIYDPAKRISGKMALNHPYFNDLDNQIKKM
Sequence of C-X-C chemokine receptor type 4 (P61073 whole entry): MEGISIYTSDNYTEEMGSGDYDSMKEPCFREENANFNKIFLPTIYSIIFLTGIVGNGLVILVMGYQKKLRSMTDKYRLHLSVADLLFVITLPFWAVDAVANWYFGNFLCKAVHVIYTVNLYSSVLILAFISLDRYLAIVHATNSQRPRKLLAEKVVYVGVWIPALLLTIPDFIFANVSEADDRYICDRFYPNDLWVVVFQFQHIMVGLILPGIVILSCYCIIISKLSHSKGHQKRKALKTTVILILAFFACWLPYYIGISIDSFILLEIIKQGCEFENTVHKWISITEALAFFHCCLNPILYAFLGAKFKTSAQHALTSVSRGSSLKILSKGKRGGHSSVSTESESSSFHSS
Sequence of Adenosine receptor A3 (P0DMS8 whole entry): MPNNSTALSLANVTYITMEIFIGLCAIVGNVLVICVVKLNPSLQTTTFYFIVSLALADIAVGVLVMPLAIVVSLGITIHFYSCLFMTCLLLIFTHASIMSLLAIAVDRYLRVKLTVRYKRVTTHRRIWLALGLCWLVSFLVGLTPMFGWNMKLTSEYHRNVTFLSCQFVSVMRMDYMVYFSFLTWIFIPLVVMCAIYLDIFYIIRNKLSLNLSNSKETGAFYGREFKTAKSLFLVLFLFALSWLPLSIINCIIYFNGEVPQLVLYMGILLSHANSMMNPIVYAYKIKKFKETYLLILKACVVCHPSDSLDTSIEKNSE
Sequence of High affinity choline transporter 1 (Q9GZV3 whole entry): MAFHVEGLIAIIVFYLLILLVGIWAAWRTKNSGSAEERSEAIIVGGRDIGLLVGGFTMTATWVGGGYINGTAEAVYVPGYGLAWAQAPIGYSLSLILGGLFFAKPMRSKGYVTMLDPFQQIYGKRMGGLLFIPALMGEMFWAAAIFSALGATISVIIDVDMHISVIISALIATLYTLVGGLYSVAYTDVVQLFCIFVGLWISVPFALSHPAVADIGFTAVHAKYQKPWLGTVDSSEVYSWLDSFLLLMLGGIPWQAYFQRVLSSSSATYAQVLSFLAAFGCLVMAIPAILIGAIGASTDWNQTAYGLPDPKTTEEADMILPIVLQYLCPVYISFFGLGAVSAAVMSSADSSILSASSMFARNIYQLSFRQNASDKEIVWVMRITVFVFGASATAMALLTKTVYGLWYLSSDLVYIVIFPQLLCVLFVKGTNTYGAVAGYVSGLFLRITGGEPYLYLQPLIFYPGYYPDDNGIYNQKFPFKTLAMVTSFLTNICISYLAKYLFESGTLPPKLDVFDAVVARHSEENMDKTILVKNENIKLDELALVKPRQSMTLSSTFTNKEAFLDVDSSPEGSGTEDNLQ
Sequence of D(1A) dopamine receptor (P21728 whole entry): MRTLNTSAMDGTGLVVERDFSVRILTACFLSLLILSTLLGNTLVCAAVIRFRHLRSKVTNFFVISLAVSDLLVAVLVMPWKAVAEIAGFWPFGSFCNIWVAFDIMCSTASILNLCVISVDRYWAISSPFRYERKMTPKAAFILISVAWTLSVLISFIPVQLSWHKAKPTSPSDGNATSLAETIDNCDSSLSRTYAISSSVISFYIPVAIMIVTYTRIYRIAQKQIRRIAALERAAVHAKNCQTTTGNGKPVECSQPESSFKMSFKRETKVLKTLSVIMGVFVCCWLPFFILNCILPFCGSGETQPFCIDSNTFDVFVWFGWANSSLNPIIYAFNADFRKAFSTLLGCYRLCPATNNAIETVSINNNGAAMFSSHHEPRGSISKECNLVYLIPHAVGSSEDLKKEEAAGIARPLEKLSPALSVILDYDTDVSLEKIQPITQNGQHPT
Sequence of High affinity nerve growth factor receptor (P04629 whole entry): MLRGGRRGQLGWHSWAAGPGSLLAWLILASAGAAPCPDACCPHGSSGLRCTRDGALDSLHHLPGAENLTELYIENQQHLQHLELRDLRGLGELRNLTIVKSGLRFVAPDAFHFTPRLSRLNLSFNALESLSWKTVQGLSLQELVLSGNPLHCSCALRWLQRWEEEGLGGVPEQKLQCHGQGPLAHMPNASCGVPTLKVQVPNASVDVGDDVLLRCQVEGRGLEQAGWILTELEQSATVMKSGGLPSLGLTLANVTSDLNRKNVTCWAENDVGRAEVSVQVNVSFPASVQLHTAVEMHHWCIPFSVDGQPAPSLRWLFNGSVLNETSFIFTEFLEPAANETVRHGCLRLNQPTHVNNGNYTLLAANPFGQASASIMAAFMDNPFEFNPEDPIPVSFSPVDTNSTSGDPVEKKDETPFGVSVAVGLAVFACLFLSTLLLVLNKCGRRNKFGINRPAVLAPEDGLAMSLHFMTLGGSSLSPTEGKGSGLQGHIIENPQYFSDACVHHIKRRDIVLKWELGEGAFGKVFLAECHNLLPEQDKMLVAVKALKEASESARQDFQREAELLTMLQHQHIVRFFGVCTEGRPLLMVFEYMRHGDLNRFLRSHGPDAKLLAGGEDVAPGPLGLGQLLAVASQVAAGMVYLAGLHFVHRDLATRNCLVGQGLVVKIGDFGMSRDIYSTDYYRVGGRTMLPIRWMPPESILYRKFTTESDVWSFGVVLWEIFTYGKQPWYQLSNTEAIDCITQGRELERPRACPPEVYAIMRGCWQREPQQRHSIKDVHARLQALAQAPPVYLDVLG
Description for MCF7: Antiproliferative activity against human MCF7 cells

In the case of `N#CCNc1nc(Nc2ccccc2)ncc1Br`, the figures for the half-inhibitory concentration (IC50) (in the data set on MCF7; in data set [1]; in data set [2]) were 4000 nM, 100 nM and 100 nM, respectively.

`CCC[C@H](NC(=O)[C@@H]1[C@H]2CCC[C@H]2CN1C(=O)[C@@H](NC(=O)[C@@H](NC(=O)c1cnccn1)C1CCCCC1)C(C)(C)C)C(=O)C(=O)NC1CC1` had an inhibitory constant (Ki) in data set [3] of 7 nM. Further, half-maximal inhibition in the data set with Hepatitis C virus [4] (IC50) was put at 354 nM.

Consider `CC(C)(C)NC(=O)N[C@H](C(=O)N1C[C@H]2[C@@H]([C@H]1C(=O)NC(CC1CCC1)C(=O)C(N)=O)C2(C)C)C(C)(C)C` (stereo partly drawn), for which, in data set [5], the Selectivity ratio stood at 2800.

The compound `COc1cc2nc(-c3ccccc3)cc3c2cc1/C=C/CC(C)(C)COC(=O)N[C@H]1CCCCC/C=C\[C@@H]2C[C@@]2(C(=O)NS(=O)(=O)C2CC2)NC(=O)[C@@H]2C[C@H](CN2C1=O)O3` returned a 50% effective concentration (EC50) with Hepatitis C virus [4] of 2 nM. Further, the inhibition constant Ki came out at 1.2 nM in [6] and 0.029 nM with Hepatitis C virus [7].

In turn, `c1ccc(CNCc2ccc(CN3CCCNCCNCCCNCC3)cc2)nc1` registered an IC50 in [8] of 12.4 nM.

With `CC(C)(C)OC(=O)N[C@H]1CCCCC/C=C\[C@@H]2C[C@@]2(C(=O)NS(=O)(=O)C2CC2)NC(=O)[C@@H]2C[C@@H](OC(=O)N3Cc4cccc(F)c4C3)CN2C1=O` [DANOPREVIR], the IC50 (in data set [9]; in [10]; in [12]; in [14]; in data set [6]; with Hepatitis C virus [7] (Hepatitis C virus)) was 0.2 nM each time. This compound had an IC50 in data set [15] of 0.2 nM. The values for the partition ratio (Kp) (in “in vivo [11]”; in data set [13]) were 10 and 100, respectively. In addition, the response in the data set on Hepatitis C virus [4] was half-maximal at 1.8 nM (EC50).

In [9], `COc1ccc2c(O[C@@H]3C[C@H]4C(=O)N[C@]5(C(=O)O)C[C@H]5/C=C\CCCCC[C@H](NC(=O)OC5CCCC5)C(=O)N4C3)cc(-c3csc(NC(C)C)n3)nc2c1` registered a Ki of 0.3 nM. The half-life in [16] is 7 h; in [19], 4.2 h; in data set [20], 0.8 h. The bioavailability came to 36% in data set [17], 13% in [18] and 7% in data set [22]. In addition, the fraction unbound in data set [21] is 0.009.

`O=C1CCC[C@H](CN2CCOCC2)OC(=O)[C@H](O)[C@H](CC2CCCCC2)NC(=O)[C@@H](NC(=O)[C@H](Cc2ccccc2)N[C@@H]2CN3CCC2CC3)CO1`: the bioavailability in [23] was 1%. In addition, it took 1.3 nM to reach half-maximal inhibition at Renin (IC50).

As to `Cc1ccc2c(ccn2C[C@@H]2C/C=C/[C@H](c3ccc(CP(=O)(O)O)cc3)[C@H](CC(=O)O)C(=O)NC3(CCCCC3)C(=O)N[C@@H](CC(N)=O)C(=O)NC2)c1`, the results for the half-inhibitory concentration (IC50) in data set [24], in data set [25] and in data set [26] were > 10000 nM, 630 nM and ≤ 10 nM, respectively.

In turn, `CC(C)C[C@H](NC(=O)[C@H](CC(N)=O)NC(=O)[C@H](C)NC(=O)[C@@H](N)CCC(=O)O)[C@@H](O)C[C@@H](C)C(=O)N[C@@H](C)C(=O)N[C@@H](CCC(=O)O)C(=O)N[C@@H](Cc1ccccc1)C(=O)O` (H-EAN[LeuΨ(S-CHOHCH2)Ala]AEF-OH) displayed a half-inhibitory concentration (IC50) on Beta-secretase 1 [27] of 1.6 nM.

For the compound `CC[C@H](C)[C@@H]1NCCOc2ccccc2CCCNC(=O)[C@@H](Cc2ccccc2)NC(=O)[C@H](CO)N(C)C1=O`, the Ki in [28] is 100 nM. The 50% inhibitory concentration (IC50) in data set [29] is 500 nM.

`CC[C@H](C)[C@@H]1NCCOc2ccccc2CCCNC(=O)[C@@H](Cc2ccc(Cl)cc2)NC(=O)[C@@H](C)N(C)C1=O` yielded a concentration for a half-maximal effect (EC50) in [30] of 14 nM. This compound returned a Ki in [28] of 1 nM.

For the compound `CC(C)[C@H](NC(=O)OC(C)(C)C)C(=O)N[C@@H](C)C(=O)N[C@@H](Cc1ccccc1)[C@@H](O)C[C@@H](C)C(=O)N[C@H](C(=O)NCc1ccncc1)C(C)C`, at Beta-secretase 1 [31], half-maximal inhibition (IC50) required 2100 nM.

As to `COc1ccc2c(O[C@@H]3C[C@H]4C(=O)N[C@]5(C(=O)NS(=O)(=O)C6CC6)C[C@H]5/C=C\CCCCN(C)C(=O)[C@@H]4C3)cc(-c3nc(C(C)C)cs3)nc2c1C`, in data set [9], the Ki amounted to 0.5 nM. Also, the values for the concentration for a half-maximal effect (EC50) in the data set on Hepatitis C virus [32] and in the data set with Hepatitis C virus [34] were 25 nM and 28 nM, respectively. In data set [17], this compound returned a bioavailability of 100%. In addition, in “in vivo [33]”, the clearance came to 38 mL/min/kg. The partition ratio (Kp) in “in vivo [11]” was > 35. The half-life is 5.1 h in [19] and 4 h in data set [20].

As to `NCCCC[C@@H]1NC(=O)c2cc([N+](=O)[O-])ccc2NCc2ccc(C(N)=O)cc2NC(=O)[C@H](CO)NC1=O`, the IC50 in data set [35] was 4000 nM.

With `CN(C)C(=O)[C@@H](NC(=O)CNC(=O)C(=O)[C@@H]1CCCCCCCCCC[C@H](NC(=O)NC(C)(C)C)C(=O)N2C[C@H]3[C@@H]([C@H]2C(=O)N1)C3(C)C)c1ccccc1`, in data set [3], the affinity corresponds to a Ki of 6 nM.

Regarding `Cn1c2cnc1OCC/C=C\CCCCOc1ccccc1-2`, the IC50 on Adenosine receptor A3 amounted to 850 nM; against D(1A) dopamine receptor, 1100 nM; in [36], 3200 nM; in [37] it was 7200 nM.

Values taken from ChEMBL document CHEMBL2203227, “Macrocycles are great cycles: applications, opportunities, and challenges of synthetic macrocycles in drug discovery” (J Med Chem, 2011).
